Assay [1] concerns the target Delta-type opioid receptor (Homo sapiens, UniProt P41143). As to the kind of experiment: Displacement of [3H]DADLE from human DOR expressed in HEK cells measured after 90 mins by microbeta scintillation counting method. In kind it is cell-based, HEK293. (Loss of bound radioactivity is the signal in a displacement assay; it reports binding, not function.)
A further assay deals with Mu-type opioid receptor (Homo sapiens, UniProt P35372). As to the kind of experiment: Displacement of [3H]DAMGO from human MOR expressed in HEK cells after 90 mins by microbeta scintillation counting method. In kind it is cell-based, HEK293.
For assay [2], the target named is Kappa-type opioid receptor (Homo sapiens, UniProt P41145). As to the kind of experiment: Displacement of [3H]U69593 from KOR (unknown origin) expressed in HEKT cells measured after 90 mins by microbeta scintillation counting method. In kind it is cell-based.
The target in assay [3] is Sigma non-opioid intracellular receptor 1 (Cavia porcellus, UniProt Q60492). As to the kind of experiment: Displacement of [3H]pentazocine from guinea pig sigma1 receptor measured after 90 mins by microbeta scintillation counting method.
The nature of assay [4]: Displacement of [3H]DTG from sigma2 receptor in rat PC12 cells measured after 90 mins by microbeta scintillation counting method. The class given is cell-based. The settings on record: pc-12.
Assay [5] concerns PC-12. As to the kind of experiment: Selectivity ratio of Ki for sigma2 receptor in rat PC12 cells to Ki for guinea pig sigma1 receptor. The class given is cell-based.
Assay [6] relates to PC-12. As to the kind of experiment: Selectivity ratio of Ki for guinea pig sigma1 receptor to Ki for sigma2 receptor in rat PC12 cells. The class given is cell-based.

For orientation: Ki means the dissociation constant of the complex between target and ligand, obtained from inhibition or displacement. A high value points to weaker binding.

Molecules are shown by their SMILES. A value given as a limit tells only on which side of the number the result lay.

Chain of Kappa-type opioid receptor (P41145 whole entry): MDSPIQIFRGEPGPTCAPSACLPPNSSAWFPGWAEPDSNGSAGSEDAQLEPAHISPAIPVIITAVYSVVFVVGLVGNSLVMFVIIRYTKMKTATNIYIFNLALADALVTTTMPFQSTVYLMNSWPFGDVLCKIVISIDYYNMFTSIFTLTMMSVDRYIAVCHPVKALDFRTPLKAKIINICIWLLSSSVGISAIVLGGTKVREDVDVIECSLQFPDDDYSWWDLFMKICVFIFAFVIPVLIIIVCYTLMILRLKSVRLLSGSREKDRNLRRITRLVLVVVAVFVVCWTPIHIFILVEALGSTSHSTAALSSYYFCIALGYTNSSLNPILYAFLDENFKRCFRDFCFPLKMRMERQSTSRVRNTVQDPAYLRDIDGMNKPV
Chain of Sigma non-opioid intracellular receptor 1 (Q60492 whole entry): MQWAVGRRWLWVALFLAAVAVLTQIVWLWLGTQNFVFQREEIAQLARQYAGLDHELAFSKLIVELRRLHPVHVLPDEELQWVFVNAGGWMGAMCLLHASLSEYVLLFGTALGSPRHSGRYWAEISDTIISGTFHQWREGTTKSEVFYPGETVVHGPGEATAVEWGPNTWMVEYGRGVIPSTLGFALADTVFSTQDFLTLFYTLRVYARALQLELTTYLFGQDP
Chain of Delta-type opioid receptor (P41143 whole entry): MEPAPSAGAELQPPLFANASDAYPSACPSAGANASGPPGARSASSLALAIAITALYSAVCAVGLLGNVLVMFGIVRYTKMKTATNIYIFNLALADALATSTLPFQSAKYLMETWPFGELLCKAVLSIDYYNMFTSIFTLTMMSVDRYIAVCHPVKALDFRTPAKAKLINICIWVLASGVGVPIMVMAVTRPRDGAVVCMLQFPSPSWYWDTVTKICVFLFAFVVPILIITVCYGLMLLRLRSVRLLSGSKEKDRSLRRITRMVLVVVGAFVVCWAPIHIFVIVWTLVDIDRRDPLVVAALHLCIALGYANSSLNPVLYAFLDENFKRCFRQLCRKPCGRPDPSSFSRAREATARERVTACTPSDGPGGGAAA
Chain of Mu-type opioid receptor (P35372 whole entry): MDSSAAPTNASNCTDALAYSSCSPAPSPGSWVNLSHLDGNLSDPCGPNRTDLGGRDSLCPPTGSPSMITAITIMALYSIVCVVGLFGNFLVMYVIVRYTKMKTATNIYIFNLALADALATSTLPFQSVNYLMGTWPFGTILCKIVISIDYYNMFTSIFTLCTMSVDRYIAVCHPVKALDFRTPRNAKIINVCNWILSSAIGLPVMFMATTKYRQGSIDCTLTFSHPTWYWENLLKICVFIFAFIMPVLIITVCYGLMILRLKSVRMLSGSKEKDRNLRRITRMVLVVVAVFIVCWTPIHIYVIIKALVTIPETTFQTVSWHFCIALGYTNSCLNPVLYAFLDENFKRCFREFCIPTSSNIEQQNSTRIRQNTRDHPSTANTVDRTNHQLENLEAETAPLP

As to `CCCN1CC[C@@H]2CC(=O)C[C@H]3CCC[C@H]1[C@H]32`, the Ki in assay [1] was above 10 µM; at Mu-type opioid receptor, above 10 µM; in assay [2], above 10 µM; in assay [3], 0.345 µM; in assay [4], 0.663 µM. For the same molecule, the Ratio Ki with PC-12 [5] turned out to be 1.9.

On to `COc1ccc(C[C@H]2C(=O)C[C@@H]3CCN(CCC(C)C)[C@@H]4CCC[C@H]2[C@@H]34)cc1`, for which the Ki is above 10 µM in assay [1]; above 10 µM at Mu-type opioid receptor; above 10 µM in assay [2]; 0.003 µM in assay [3]; 0.006 µM in assay [4]. Moreover, the Ratio Ki in the assay with PC-12 [5] was determined as 2.

Regarding `COCCN1CC[C@H]2CC(=O)[C@H](Cc3ccccc3)[C@H]3CCC[C@@H]1[C@H]23`, the Ki in assay [1] is above 10 µM; on Mu-type opioid receptor, above 10 µM; in assay [2], above 10 µM; in assay [3], 0.002 µM; in assay [4], 0.035 µM. Besides, the Ratio Ki in the assay on PC-12 [5] worked out at 17.5.

As to `CC[C@H]1C(=O)C[C@@H]2CCN(CCC(C)C)[C@@H]3CCC[C@H]1[C@@H]23`, the Ki in assay [1] is above 10 µM; at Mu-type opioid receptor, above 10 µM; in assay [2], 1.28 µM; in assay [3] it was 0.004 µM; in assay [4], 0.006 µM. Moreover, in the assay on PC-12 [5], the Ratio Ki was determined as 1.5.

As for `CCCN1CC[C@H]2CC3=Nc4ccccc4[C@]3(CC)[C@H]3CCC[C@@H]1[C@H]23`, the Ki in assay [1] is above 10 µM; at Mu-type opioid receptor, above 10 µM; in assay [2], above 10 µM; in assay [3] it was 0.007 µM; in assay [4] it was 0.076 µM. The Ratio Ki in the assay on PC-12 [5] stood at 10.9.

On to `CC[C@H]1C(=O)C[C@@H]2CCN(C)[C@@H]3CCC[C@H]1[C@@H]23`, for which the Ki in assay [1] was above 10 µM; at Mu-type opioid receptor it was above 10 µM; in assay [2], above 10 µM; in assay [3] it was 0.137 µM; in assay [4] it was above 5.93 µM. The Ratio Ki in the assay on PC-12 [5] is above 43.3.

Regarding `CC[C@H]1c2nc3ccccc3cc2[C@@H]2CCN(C)[C@@H]3CCC[C@H]1[C@H]32`, the Ki in assay [1] is above 10 µM; at Mu-type opioid receptor it was above 10 µM; in assay [2] it was 3.49 µM; in assay [3], 0.189 µM; in assay [4] it was 0.086 µM. For the same molecule, the Ratio Ki in the assay with PC-12 [5] was 0.5; in the assay on PC-12 [6], 2.2.

Consider `CC[C@H]1C(=O)C[C@@H]2CCN(CCOC)[C@@H]3CCC[C@H]1[C@@H]23`, for which the Ki in assay [1] was above 10 µM; on Mu-type opioid receptor, above 10 µM; in assay [2] it was above 10 µM; in assay [3], 0.026 µM; in assay [4], 0.423 µM. In the assay on PC-12 [5], the Ratio Ki came out at 16.3.

Take `CC[C@H]1C(=O)C[C@@H]2CCN(Cc3cccs3)[C@@H]3CCC[C@H]1[C@@H]23`: the Ki in assay [1] is above 10 µM; at Mu-type opioid receptor, 0.892 µM; in assay [2] it was 1.47 µM; in assay [3] it was 0.006 µM; in assay [4], 0.187 µM. The Ratio Ki with PC-12 [5] stood at 31.2.

Consider `CC[C@H]1C(=O)C[C@@H]2CCN(S(=O)(=O)c3ccc(C)cc3)[C@@H]3CCC[C@H]1[C@@H]23`, for which the Ki (in assay [1]; on Mu-type opioid receptor; in assay [2]; in assay [3]; in assay [4]) was above 10 µM each time.

Turning to `CCCN1CC[C@H]2C[C@@H](O)[C@H](CC)[C@H]3CCC[C@@H]1[C@H]23`, the Ki in assay [1] is above 10 µM; at Mu-type opioid receptor, above 10 µM; in assay [2] it was above 10 µM; in assay [3] it was 0.055 µM; in assay [4], 0.183 µM. Further, the Ratio Ki in the assay with PC-12 [5] is 3.3.

As to `O=C1C[C@@H]2CCN(Cc3cccs3)[C@@H]3CCC[C@@H]([C@@H]23)[C@H]1Cc1ccccc1`, the Ki in assay [1] is above 10 µM; at Mu-type opioid receptor, above 10 µM; in assay [2], 0.638 µM; in assay [3], 0.003 µM; in assay [4], 0.044 µM. Also, in the assay on PC-12 [5], the Ratio Ki came out at 14.7.

Turning to `O=C1C[C@@H]2CCN(CC3CCCCC3)[C@@H]3CCC[C@@H]([C@@H]23)[C@H]1Cc1ccccc1`, the Ki in assay [1] was above 10 µM; on Mu-type opioid receptor it was above 10 µM; in assay [2], 1.23 µM; in assay [3], 0.003 µM; in assay [4], 0.002 µM. In addition, the Ratio Ki in the assay on PC-12 [5] was 0.7.

In the case of `COc1ccc(C[C@H]2C(=O)C[C@@H]3CCN(CC4CCCCC4)[C@@H]4CCC[C@H]2[C@@H]34)cc1`, the Ki in assay [1] was above 10 µM; at Mu-type opioid receptor, above 10 µM; in assay [2] it was 1.6 µM; in assay [3], 0.01 µM; in assay [4], 0.003 µM. Besides, the Ratio Ki in the assay with PC-12 [5] is 0.3; in the assay with PC-12 [6] it was 3.

Consider `CCCN1CC[C@H]2c3cc4cccc(OC)c4nc3[C@H](CC)[C@H]3CCC[C@@H]1[C@@H]32`, for which the Ki in assay [1] is above 10 µM; at Mu-type opioid receptor, above 10 µM; in assay [2], 1.69 µM; in assay [3], 0.171 µM; in assay [4] it was 0.063 µM. Further, the Ratio Ki was 0.4 in the assay with PC-12 [5] and 2.7 in the assay with PC-12 [6].

`CC[C@H]1C(=O)C[C@@H]2CCN(CC3CCCCC3)[C@@H]3CCC[C@H]1[C@@H]23`: the Ki is above 10 µM in assay [1]; 1.9 µM at Mu-type opioid receptor; 0.278 µM in assay [2]; 0.004 µM in assay [3]; 0.003 µM in assay [4]. For the same molecule, the Ratio Ki in the assay on PC-12 [5] came out at 0.8.

In the case of `COc1ccc(C[C@H]2C(=O)C[C@@H]3CCN(C)[C@@H]4CCC[C@H]2[C@@H]34)cc1`, the Ki in assay [1] is above 10 µM; at Mu-type opioid receptor, above 10 µM; in assay [2], above 10 µM; in assay [3], 0.005 µM; in assay [4] it was 0.251 µM. Moreover, the Ratio Ki in the assay with PC-12 [5] worked out at 50.2.

Regarding `CC[C@H]1C(=O)C[C@@H]2CCN(C(=O)NCc3ccc(Cl)cc3)[C@@H]3CCC[C@H]1[C@@H]23`, the Ki is above 10 µM in assay [1]; above 10 µM at Mu-type opioid receptor; above 10 µM in assay [2]; 0.722 µM in assay [3]; 1.91 µM in assay [4]. In the assay on PC-12 [5], the Ratio Ki turned out to be 2.6.

For `O=C(CCCN1CCC(O)(c2ccc(Cl)cc2)CC1)c1ccc(F)cc1` [HALOPERIDOL], the Ki in assay [4] amounted to 0.014 µM.

As to `CCCN1CC[C@H]2c3cc4ccccc4nc3[C@H](CC)[C@H]3CCC[C@@H]1[C@@H]32`, the Ki in assay [1] is above 10 µM; on Mu-type opioid receptor it was above 10 µM; in assay [2], 0.493 µM; in assay [3], 0.07 µM; in assay [4] it was 0.027 µM. Besides, the Ratio Ki in the assay on PC-12 [5] was determined as 0.4; in the assay on PC-12 [6] it was 2.6.

With `CCCN1CC[C@H]2CC(=O)C[C@H]3CCC[C@@H]1[C@@H]32`, the Ki was above 10 µM in assay [1]; above 10 µM on Mu-type opioid receptor; above 10 µM in assay [2]; 0.126 µM in assay [3]; 0.127 µM in assay [4]. Besides, in the assay with PC-12 [5], the Ratio Ki turned out to be 1.

On to `CCCN1CC[C@H]2c3cc4cc(Cl)ccc4nc3[C@H](CC)[C@H]3CCC[C@@H]1[C@@H]32`, for which the Ki was above 10 µM in assay [1]; above 10 µM on Mu-type opioid receptor; 0.372 µM in assay [2]; 0.209 µM in assay [3]; 0.017 µM in assay [4]. Also, the Ratio Ki amounted to 0.08 with PC-12 [5] and 12.3 in the assay on PC-12 [6].

Turning to `CC(C)CCN1CC[C@H]2CC(=O)[C@H](Cc3ccccc3)[C@H]3CCC[C@@H]1[C@H]23`, the Ki in assay [1] is above 10 µM; at Mu-type opioid receptor, above 10 µM; in assay [2], 0.711 µM; in assay [3] it was 0.002 µM; in assay [4] it was 0.003 µM. The Ratio Ki with PC-12 [5] was found to be 1.5.

With `CCCN1CC[C@H]2CC(=O)[C@H](Cc3ccccc3)[C@H]3CCC[C@@H]1[C@H]23`, the Ki is above 10 µM in assay [1]; above 10 µM on Mu-type opioid receptor; 3.62 µM in assay [2]; 0.001 µM in assay [3]; 0.005 µM in assay [4]. Besides, the Ratio Ki in the assay on PC-12 [5] turned out to be 5.

Turning to `CCCN1CC[C@H]2CC(=O)[C@H](Cc3ccc(OC)cc3)[C@H]3CCC[C@@H]1[C@H]23`, the Ki was above 10 µM in assay [1]; above 10 µM at Mu-type opioid receptor; above 10 µM in assay [2]; 0.009 µM in assay [3]; 0.029 µM in assay [4]. The Ratio Ki in the assay on PC-12 [5] worked out at 3.2.

For `O=C1C[C@@H]2CCN(Cc3nccs3)[C@@H]3CCC[C@@H]([C@@H]23)[C@H]1Cc1ccccc1`, the Ki in assay [1] was above 10 µM; at Mu-type opioid receptor, above 10 µM; in assay [2], 1.4 µM; in assay [3] it was 0.003 µM; in assay [4], 0.27 µM. For the same molecule, the Ratio Ki with PC-12 [5] was determined as 90.

For `CC[C@H]1C(=O)C[C@@H]2CCN(Cc3nccs3)[C@@H]3CCC[C@H]1[C@@H]23`, the Ki is above 10 µM in assay [1]; above 10 µM on Mu-type opioid receptor; above 10 µM in assay [2]; 0.407 µM in assay [3]; 0.76 µM in assay [4]. Further, the Ratio Ki in the assay on PC-12 [5] came out at 1.9.

`CCCCCCCN1CC[C@H]2CC(=O)[C@H](CC)[C@H]3CCC[C@@H]1[C@H]23`: the Ki in assay [1] was above 10 µM; on Mu-type opioid receptor, 0.632 µM; in assay [2] it was above 10 µM; in assay [3], 0.002 µM; in assay [4], 0.008 µM. Besides, the Ratio Ki with PC-12 [5] was 4.

Values taken from ChEMBL document CHEMBL3868615, “Decahydrobenzoquinolin-5-one sigma receptor ligands: Divergent development of both sigma 1 and sigma 2 receptor selective examples” (Bioorg Med Chem Lett, 2016).
